Data published in patent US11472862B2, “IL13Rα2 peptide and its uses” (priority 2017, dated 2022).
Non-standard residues stand in square brackets, D forms with d. No end group written: not given here.

What was measured:
KM12SM cells [1] = experiment: Metastasis experiment in nude mice, Kaplan-Meier survival after intrasplenic inoculation; format: in vivo, Swiss nude mice
Procedure: (§1) FIG. 6. D1 and D-D1 peptides increase the survival of mice inoculated with metastatic tumor cells and inhibits glioblastoma xenografts. (A) Liver homing experiment. Metastatic KM12SM cells were treated with the IL13 and/or D1 peptide and inoculated in spleen of nude mice. […] (C) 10^7 U251 cells were inoculated subcutaneously into the flanks of mice. Eleven days after cell inoculation, when tumours reached a size of 100 mm^3, mice were treated with D-D1 peptide (3 μg/100 μL of PBS) subcutaneously or with saline solution in a total of 7 doses during 15 days. Tumours were measured every 2-3 days. **p<0.01 vs control.
Binding of D1 peptide to IL-13 was monitored by surface plasmon resonance on a BIAcore 3000 instrument (BIAcore Inc, Switzerland). IL-13 was covalently amino coupled to a CM-5 sensor chip. An immobilization level of 7700 RU was obtained. A nonderivatized flow cell was used as a control. The interaction between D1 peptide and the immobilized IL13 was determined by changes in the RU at different D1 concentrations. Cell Signaling Analysis Cancer cells were incubated 3 h in DMEM without serum, detached with 2 mM EDTA, washed and treated with IL-13 (PeproTech) (10 ng/ml) for different times in presence or absence of IL13Rα2D1 peptide. Then, cells were lysed with lysis buffer (1% Igepal, 50 mM Tris-HCl, 100 mM NaCl, 2 mM MgCl2, 10% glycerol, protease inhibitors (Complete Mini, Roche) and phosphatase inhibitor cocktails 2 and 3 (Sigma-Aldrich)). Protein extracts (60 μg) were separated in SDS-PAGE and transferred to nitrocellulose membranes, which were incubated with primary antibodies, washed and incubated with HRP-conjugated secondary antibodies (Sigma-Aldrich). […] Proliferation Assays Cancer cells were seeded at 1×10^4 cells/well on 96-well plates and were incubated for 48 h at 37° C. in DMEM with 0.5% serum in presence of IL-13 (10 ng/ml) and the indicated peptides, followed by 1 h incubation with Thyazolyl Blue Tretrazolium Bromide (MTT) (0.6 mg/mL) (Sigma-Aldrich). Cell proliferation was determined by absorbance at 560 nm and comparison with control cells collected ab initium. Cell Adhesion Assays Cancer cells were starved for 3 h, labeled with BCECF-AM (Molecular Probes), detached with EDTA/PBS and incubated in DMEM in the presence of IL-13 and the indicated peptides for 10 min at 37° C. Then, 6×10^4 cells in 100 μL were added to 96-well plates previously coated with Matrigel (0.4 μg/mm^2), and the plates were incubated for 25 min at 37° C. Subsequently, non-adhered cells were removed by three washes with DMEM. Bound cells were lysed with 1% SDS in PBS, and the extent of the adhesion was quantified using a fluorescence analyzer (POLARstar Galaxy, BMG Labtechnologies). Wound Healing Assays Cancer cells were cultured to confluence in Matrigel-coated plates (0.4 μg/mm^2), and a 1 mm-wide wound was done across the monolayer, which was incubated in serum-free medium alone or with IL-13 (10 ng/mL), in the presence or absence of the indicated peptides. Pictures were taken immediately and after 24 h culture at 37° C. after the injury. Effective migration speed was calculated from the distance covered by cells in 24 h in each side of the wound. Invasion Assays For Matrigel invasion assays, 6×10^4 cells were loaded onto […] pore-size filters coated with […] of Matrigel (1:3 dilution; BD Biosciences) in Transwell plates (Costar) in presence of the indicated peptides. The lower compartment of the invasion chamber was filled with IL-13 (10 ng/mL). After 48 h, non-invading cells were removed from the upper surface of the filter, and cells that migrated through the filter were fixed with 4% paraformaldehyde (Sigma-Aldrich), stained with crystal violet and counted under a microscope. […] Swiss nude mice (Charles River) (n=5 per condition) were inoculated in the spleen with 1.5×10^6 KM12SM cells in 0.1 mL PBS in presence or absence of the indicated peptides (1 μg/mL). A day after inoculation, mice were subjected to removal of the spleen. […]

KM12SM cells [2] = experiment: MTT proliferation assay; format: cell-based, human; conditions: with IL-13, peptide 1 μg/ml, 48 h
Procedure: (§2) Recombinant human IL13 was used at […] (13) and was purchased from PeproTech. IL13Rα2-derived peptides (IL13Rα2D1: GSETWKTIITKN, SEQ ID NO: 3; IL13Rα2D1S: WKTIITKN, SEQ ID NO: 1; IL13Rα2Nter: FEIVDPGY, SEQ ID NO: 14; IL13Rα2Cter WSIPLGPI, SEQ ID NO: 15; IL13Rα2D1S-1A: WATIITKN, SEQ ID NO: 16; IL13Rα2D1S-2A WKAIITKN, SEQ ID NO: 17; IL13Rα2D1S-3A WKTAITKN, SEQ ID NO: 18; IL13Rα2D1S-4A WKTIATKN, SEQ ID NO: 19; IL13Rα2D1S-5A WKTIIAKN, SEQ ID NO: 20; IL13Rα2D1S-6A WKTIITAN, SEQ ID NO: 21) were synthesized using solid phase chemistry with a Focus XC instrument (AAPPtec). The enantio version D-IL13Rα2D1 (D-D1) peptide (GSETWKTIITKN, SEQ ID NO: 3) composed entirely by D-amino acids was purchased from Proteogenix (Schiltigheim, France). […]
(§3) Binding of D1 peptide to IL-13 was monitored by surface plasmon resonance on a BIAcore 3000 instrument (BIAcore Inc, Switzerland). […] The interaction between D1 peptide and the immobilized IL13 was determined by changes in the RU at different D1 concentrations. […] Cell proliferation was determined by absorbance at 560 nm and comparison with control cells collected ab initium. […] Bound cells were lysed with 1% SDS in PBS, and the extent of the adhesion was quantified using a fluorescence analyzer (POLARstar Galaxy, BMG Labtechnologies). […] Effective migration speed was calculated from the distance covered by cells in 24 h in each side of the wound. […]

KM12SM cells [3] = experiment: Cell invasion assay through Matrigel; format: cell-based, human; conditions: with IL-13, peptide 1 μg/ml, 48 h
Procedure: as §2, §3

KM12SM cells [4] = experiment: Cell adhesion assay to Matrigel; format: cell-based, human; conditions: with IL-13, peptide 1 μg/ml
Procedure: as §2, §3

[5] = test system: U251 glioblastoma xenografts; experiment: Glioblastoma xenograft tumour growth; format: in vivo, mice; conditions: 3 μg/100 μL PBS subcutaneously, 7 doses during 15 days, start at 100 mm^3; p<0.01 vs control
Procedure: as §1
Additionally, the capacity of the D-D1 peptide to inhibit tumour growth in U251 glioblastoma xenografts was tested. For glioblastoma xenografts, 10^7 U251 cells were inoculated subcutaneously into the flanks of mice. Eleven days after cell inoculation, when tumours reached a size of 100 mm^3, mice were treated with D-D1 peptide (3 μg/100 μL of PBS) subcutaneously or with saline solution in a total of 7 doses during 15 days. Tumours were measured every 2-3 days.

Sequence: GSETWKTIITKN (G[dS][dE][dT][dW][dK][dT][dI][dI][dT][dK][dN]) [D-D1 peptide]
- Mice surviving the experimental endpoint, without further treatment (KM12SM cells [1]; KM12SM intrasplenic, cells with peptide 1 μg/ml only, n=5 per condition): one
- Metastatic lesions in surviving mice, without further treatment (KM12SM cells [1]; KM12SM intrasplenic, cells with peptide only): without lesions
- Mice surviving the experimental endpoint, with peptide treatment (KM12SM cells [1]; KM12SM intrasplenic, cells with peptide plus 7 i.v. doses of 3 μg, n=5 per condition): two
- Metastatic lesions at necropsy in surviving mice, with peptide treatment (KM12SM cells [1]; KM12SM intrasplenic, cells with peptide plus i.v. treatment): no metastatic lesions at the necropsy
- Mouse survival, cells inoculated with peptide plus intravenous peptide treatment (KM12SM cells [1]; KM12SM intrasplenic, peptide 1 μg/ml with the cells, then 7 i.v. doses of 3 μg over 2 weeks, n=5): remarkable increase in survival
- Mouse survival, cells inoculated with peptide, without further treatment (KM12SM cells [1]; KM12SM intrasplenic, peptide 1 μg/ml with the cells, n=5): significant increase
- Change of survival of treated mice (KM12SM cells [1]; KM12SM metastasis model, treated mice versus control): more than doubling the survival
- Inhibition of IL-13-stimulated cell proliferation (MTT) (KM12SM cells [2]): inhibit cell adhesion, invasion and proliferation
- Inhibition of IL-13-stimulated cell invasion through Matrigel (KM12SM cells [3]): inhibit cell adhesion, invasion and proliferation
- Inhibition of IL-13-stimulated cell adhesion to Matrigel (KM12SM cells [4]): inhibit cell adhesion, invasion and proliferation
- Tumour growth of U251 xenografts [5]: significant growth arrest accompanied by a regression in the tumour size
